Test results published in patent US20260347409A1, “CHEMICALLY MODIFIED POLYPEPTIDE” (SUZHOU GLENKOL PHARMA TECHNOLOGY CO., LTD., priority 2023, published 2026).
Where a SMILES comes first, the peptide text is derived from it. Where no end group is shown, it is not given here. [ ]: non-standard residue; d: D form. The star is where a group is joined. pY = N[C@@H](Cc1ccc(OP(=O)(O)O)cc1)C(=O)O; NMeY = CN[C@@H](Cc1ccc(O)cc1)C(=O)O; Palmitoyl = CCCCCCCCCCCCCCCC(=O)*; Tle = CC(C)(C)[C@H](N)C(=O)O

Columns and labels:
PC-12 cells = test: Cell viability of PC-12 neural cells under glutamate stimulation (excitotoxic cell death model, propidium iodide/Hoechst staining); assay type: cell-based, rat; settings: for Normalized cell viability (%): 10 nM compound, 30 min pretreatment, then glutamate stimulation 24 h, normalized to positive control MK-801; for EC50: dose-response relationship in promoting the viability of PC-12 neurons, glutamate stimulation
Procedure: 1.1. Culture of PC-12 Cell Line and Establishment of Excitotoxic Cell Death Model
PC-12 cells (a […] cell line derived from rat adrenal medulla) were cultured in DMEM/F12 complete medium until eaching 80-90% confluence. The cells were then digested, collected, resuspended, and seeded at density of 5×10^4 cells per well in a 24-well plate precoated with coverslips. Following 26 hours of cell culture, excitotoxic cell death was induced by glutamate stimulation. For model establishment: an appropriate amount of glutamate was weighed and dissolved in DMEM/F12 medium to prepare a stock solution. After filtration, the stock solution was diluted with culture medium and administered to the cells via medium replacement. The cells were further incubated for 24 hours after administration.
1.2 Administration of Small Molecules
Prior to glutamate modeling, cells incubated as described in the previous step were pretreated with 10 nM of the polypeptide compound according to the present application for 30 minutes, followed by glutamate stimulation.
1.3. Propidium Iodide Staining
Cells treated with the polypeptide compound according to the present application were stained with propidium iodide to assess cell death. After discarding the culture medium, the cells were washed with PBS, and propidium iodide/Hoechst was added. After incubating for 30 minutes, the cells were removed and the staining solution was discarded. After washing with PBS, the cells were fixed and mounted, and subjected to image acquisition under a fluorescence microscope. The number of propidium iodide-positive cells and Hoechst-positive cells in the acquired images was counted to calculate the cell viability. MK-801 was used as the positive control compound. The normalized cell viability was calculated using the following formula: (cell viability of the compound group −cell viability of the glutamate group)/(cell viability of the positive control group −cell viability of the glutamate group)×100%.
Based on the above dose-response studies of the compound, the inhibitory effects of different small-molecule compounds at the same dose (10 nM) against excitotoxic death in PC-12 neurons cells were further compared.
Based on this, the dose-response relationship of the neuroprotective effect of the polypeptide compounds according to the present application on PC-12 neural cells was analyzed.

[1] = Pharmacokinetic characteristics in rats after intravenous administration (plasma, LC-MS/MS); assay type: in vivo; settings: SD rats, intravenous (tail vein), 10 mg/kg; for MRT inf: rat
Procedure: Experimental Example 2: Pharmacokinetic Characteristics of Various Compounds in Rats
Intravenous administration: Three SD rats per group were administered the compounds of Example 1, Example 2, Example 3, Example 6, Example 7, Example 17, and Example 19 via the tail vein, respectively, at a dose of 10 mg/kg. all SD rats were allowed free access to food and water after administration. Plasma was collected 3 min, 10 min, 30 min, 1 h, 2 h, 6 h, 10 h, and 24 h after administration, with 3 rats per time point.
Sample processing: Whole blood was anticoagulated with EDTA-K2. Within 30 minutes of collection, the blood was centrifuged at 3000 g for 10 minutes at 2-8 °C. After centrifugation, the separated plasma was transferred to new 1.5 mL centrifuge tubes and stored at −80 °C.
Analytical method: The concentrations of each compounds in rat plasma were determined by LC-MS/MS using Shimadzu LC30AD and AB Sciex QTRAP 6500+instruments. The relevant pharmacokinetic parameters after administration were calculated.

Compound	Normalized cell viability (%) (PC-12 cells)	further results
CC(=O)N[C@@H](Cc1ccc(O)cc1)C(=O)NCC(=O)N[C@@H](CCCNC(=N)N)C(=O)N[C@@H](CCCCN)C(=O)N[C@H](CCCCN)C(=O)N[C@H](CCCNC(=N)N)C(=O)N[C@@H](CCCNC(=N)N)C(=O)N[C@@H](CCC(=O)O)C(=O)N[C@@H](CCCNC(=N)N)C(=O)N[C@H](CCCNC(=N)N)C(=O)N[C@@H](CCCNC(=N)N)C(=O)N[C@@H](CCCCN)C(=O)N[C@@H](CCCCN)C(=O)N[C@@H](CC(=O)O)C(=O)N[C@@H](CCCNC(=N)N)C(=O)N[C@@H](CC(=O)O)C(=O)N[C@@H](CCCCN)C(=O)N[C@H](CC(C)C)C(=O)N[C@H](CCCNC(=N)N)C(=O)N[C@@H](CCCNC(=N)N)C(=O)N[C@@H](CCC(=O)O)C(=O)N[C@@H](Cc1c[nH]cn1)C(=O)N[C@@H](CO)C(=O)N[C@@H](Cc1ccc(O)cc1)C(N)=O [Example 26, Ac-YGRK(D-K)(D-R)RER(D-R)RKKDRDK(D-L)(D-R)REHSY-NH2] (Ac-YGRK[dK][dR]RER[dR]RKKDRDK[dL][dR]REHSY-NH2)	82.39%	
Ac-YGRKKRRERRRKKDRDKVRREHSY-NH2 [Example 23]	74.16%	
CC(=O)N[C@@H](Cc1ccc(O)cc1)C(=O)NCC(=O)N[C@@H](CCCNC(=N)N)C(=O)N[C@@H](CCCCN)C(=O)N[C@@H](CCCCN)C(=O)N[C@@H](CCCNC(=N)N)C(=O)N[C@@H](CCCNC(=N)N)C(=O)N[C@@H](CCC(=O)O)C(=O)N[C@@H](CCCNC(=N)N)C(=O)N[C@@H](CCCNC(=N)N)C(=O)N[C@@H](CCCNC(=N)N)C(=O)N[C@@H](CCCCN)C(=O)N[C@@H](CCCCN)C(=O)N[C@@H](CC(=O)O)C(=O)N[C@@H](CCCNC(=N)N)C(=O)N[C@@H](CC(=O)O)C(=O)N[C@@H](CCCCN)C(=O)N[C@H](C(=O)N[C@@H](CCCNC(=N)N)C(=O)N[C@@H](CCCNC(=N)N)C(=O)N[C@@H](CCC(=O)O)C(=O)N[C@@H](Cc1c[nH]cn1)C(=O)N[C@@H](CO)C(=O)N[C@@H](Cc1ccc(O)cc1)C(N)=O)C(C)(C)C [Example 25, Ac-YGRKKRRERRRKKDRDKTleRREHSY-NH2] (Ac-YGRKKRRERRRKKDRDK[Tle]RREHSY-NH2)	86.80%	
YGRKKRRQRRRKKNRNKIRRQHSY-NH2 [Example 12]	58.59%	
CCCCCCCCCCCCCCCC(=O)NCCOCCOCC(=O)NCCCC[C@H](NC(=O)[C@H](CCCNC(=N)N)NC(=O)[C@H](CCCNC(=N)N)NC(=O)[C@H](CCCNC(=N)N)NC(=O)[C@H](CCC(N)=O)NC(=O)[C@H](CCCNC(=N)N)NC(=O)[C@H](CCCNC(=N)N)NC(=O)[C@H](CCCCN)NC(=O)[C@H](CCCCN)NC(=O)[C@H](CCCNC(=N)N)NC(=O)CNC(=O)[C@@H](N)Cc1ccc(O)cc1)C(=O)N[C@@H](CCCCN)C(=O)N[C@@H](CC(N)=O)C(=O)N[C@@H](CCCNC(=N)N)C(=O)N[C@@H](CC(N)=O)C(=O)N[C@@H](CCCCN)C(=O)N[C@@H](CC(C)C)C(=O)N[C@@H](CCCNC(=N)N)C(=O)N[C@@H](CCCNC(=N)N)C(=O)N[C@@H](CCC(N)=O)C(=O)N[C@@H](Cc1c[nH]cn1)C(=O)N[C@@H](CO)C(=O)N[C@@H](Cc1ccc(O)cc1)C(=O)O [Example 14, YGRKKRRQRRRK(N-AEEA-Palmitic acid)KNRNKLRRQHSY]	84.14%	
CC(=O)N[C@@H](Cc1ccc(O)cc1)C(=O)NCC(=O)N[C@@H](CCCNC(=N)N)C(=O)N[C@@H](CCCCN)C(=O)N[C@@H](CCCCN)C(=O)N[C@@H](CCCNC(=N)N)C(=O)N[C@@H](CCCNC(=N)N)C(=O)N[C@@H](CCC(=O)O)C(=O)N[C@@H](CCCNC(=N)N)C(=O)N[C@@H](CCCNC(=N)N)C(=O)N[C@@H](CCCNC(=N)N)C(=O)N[C@@H](CCCCN)C(=O)N[C@@H](CCCCN)C(=O)N[C@@H](CC(=O)O)C(=O)N[C@@H](CCCNC(=N)N)C(=O)N[C@@H](CC(=O)O)C(=O)N[C@@H](CCCCN)C(=O)N[C@H](CC(C)C)C(=O)N[C@@H](CCCNC(=N)N)C(=O)N[C@@H](CCCNC(=N)N)C(=O)N[C@@H](CCC(=O)O)C(=O)N[C@@H](Cc1c[nH]cn1)C(=O)N[C@@H](CO)C(=O)N[C@@H](Cc1ccc(O)cc1)C(N)=O [Example 20, Ac-YGRKKRRERRRKKDRDK(D-L)RREHSY-NH2] (Ac-YGRKKRRERRRKKDRDK[dL]RREHSY-NH2)	87.36%	
CN[C@@H](Cc1ccc(O)cc1)C(=O)NCC(=O)N[C@@H](CCCNC(=N)N)C(=O)N[C@@H](CCCCN)C(=O)N[C@@H](CCCCN)C(=O)N[C@@H](CCCNC(=N)N)C(=O)N[C@@H](CCCNC(=N)N)C(=O)N[C@@H](CCC(N)=O)C(=O)N[C@@H](CCCNC(=N)N)C(=O)N[C@@H](CCCNC(=N)N)C(=O)N[C@@H](CCCNC(=N)N)C(=O)N[C@@H](CCCCN)C(=O)N[C@@H](CCCCN)C(=O)N[C@@H](CC(N)=O)C(=O)N[C@@H](CCCNC(=N)N)C(=O)N[C@@H](CC(N)=O)C(=O)N[C@@H](CCCCN)C(=O)N[C@@H](CC(C)C)C(=O)N[C@@H](CCCNC(=N)N)C(=O)N[C@@H](CCCNC(=N)N)C(=O)N[C@@H](CCC(N)=O)C(=O)N[C@@H](Cc1c[nH]cn1)C(=O)N[C@@H](CO)C(=O)N[C@@H](Cc1ccc(O)cc1)C(N)=O [Example 9] (H-[NMeY]GRKKRRQRRRKKNRNKLRRQHSY-NH2)	63.17%	EC50 (PC-12 cells): 0.00483 µM
YGRKKRRQRRRKKNRDKLRREHSY [Example 16]	85.15%	EC50 (PC-12 cells): 0.0188 µM
Ac-YGRKKRRERRRKKDRDKLRREHSY-NH2 [Example 18]	87.20%	
YGRKKRRERRRKKDRNKLRRQHSY [Example 17]		T1/2 [1]: 1.66 h; Vss [1]: 23.1 L/kg; MRT inf [1]: 2.29 h
CCCCCCCCCCCCCCCC(=O)N[C@@H](Cc1ccc(O)cc1)C(=O)NCC(=O)N[C@@H](CCCNC(=N)N)C(=O)N[C@@H](CCCCN)C(=O)N[C@@H](CCCCN)C(=O)N[C@@H](CCCNC(=N)N)C(=O)N[C@@H](CCCNC(=N)N)C(=O)N[C@@H](CCC(N)=O)C(=O)N[C@@H](CCCNC(=N)N)C(=O)N[C@@H](CCCNC(=N)N)C(=O)N[C@@H](CCCNC(=N)N)C(=O)N[C@@H](CCCCN)C(=O)N[C@@H](CCCCN)C(=O)N[C@@H](CC(N)=O)C(=O)N[C@@H](CCCNC(=N)N)C(=O)N[C@@H](CC(N)=O)C(=O)N[C@@H](CCCCN)C(=O)N[C@@H](CC(C)C)C(=O)N[C@@H](CCCNC(=N)N)C(=O)N[C@@H](CCCNC(=N)N)C(=O)N[C@@H](CCC(N)=O)C(=O)N[C@@H](Cc1c[nH]cn1)C(=O)N[C@@H](CO)C(=O)N[C@@H](Cc1ccc(O)cc1)C(N)=O [Example 10] (Palmitoyl-YGRKKRRQRRRKKNRNKLRRQHSY-NH2)	49.46%	
Ac-YGRKKRRQRRRKKNRNKLRRQHSY [Example 4]	85.00%	
CC(C)C[C@H](NC(=O)[C@H](CCCCN)NC(=O)[C@H](CC(N)=O)NC(=O)[C@H](CCCNC(=N)N)NC(=O)[C@H](CC(N)=O)NC(=O)[C@H](CCCCN)NC(=O)[C@H](CCCCN)NC(=O)[C@H](CCCNC(=N)N)NC(=O)[C@H](CCCNC(=N)N)NC(=O)[C@H](CCCNC(=N)N)NC(=O)[C@H](CCC(N)=O)NC(=O)[C@H](CCCNC(=N)N)NC(=O)[C@H](CCCNC(=N)N)NC(=O)[C@H](CCCCN)NC(=O)[C@H](CCCCN)NC(=O)[C@H](CCCNC(=N)N)NC(=O)CNC(=O)[C@@H](N)Cc1ccc(OP(=O)(O)O)cc1)C(=O)N[C@@H](CCCNC(=N)N)C(=O)N[C@@H](CCCNC(=N)N)C(=O)N[C@@H](CCC(N)=O)C(=O)N[C@@H](Cc1c[nH]cn1)C(=O)N[C@@H](CO)C(=O)N[C@@H](Cc1ccc(O)cc1)C(=O)O [Example 3] (H-[pY]GRKKRRQRRRKKNRNKLRRQHSY-OH)		T1/2 [1]: 1.28 h; Vss [1]: 7.90 L/kg; MRT inf [1]: 1.71 h
